From patent US20070191291A1, “Compound antibacterial drugs comprising n-acetyl-d-glucosamine” (priority 2003, published 2007) come the findings set out here.

One assay has as its system Nucleic Acid Bacter. The assay is described as follows: Test Example 2: preventing formation of bacterial CGC in vitro (K-B method). It counts as cell-based. As for the experimental part:
(§1) E. coli (No. 33310, purchased from Chengdu Institute of Biological Products, the Ministry of Public Health) was used in the tests. Grid design was performed by using antibiotic with different concentrations and N-acetyl-D-glucosamine having an amount of from 10 mg to 300 mg. Streak plates were conducted separately, and K-B method was employed for drugs. Colonies at marginal part of drug inhibition zone were picked and were observed under microscope. If cell length was more than 50 μm and cell number was more than 5 in each visual field, it was deemed as CGC positive and was marked with “+”; while if cell length was not greater than 50 μm and cell number was within the range from 0 to 4 in each visual field, it was deemed as CGC negative and was marked with “−”. At this time, the ratio of two substances was called “effective ratio”.
(§2) Effects tests of compound preparation comprising N-acetyl-D-glucosamine and antibiotics for preventing the formation of bacterial CGC in vitro.
(§3) The tests were carried out in vitro, wherein gram-negative amphimicrodes, gram-negative anaerobes and gram-positive aerobes were separately coated on streak plates, test drugs and control drugs were separately dissolved with same volume of sterile water for injection, 10 μl of each drug was used for preparing drug-sensitive paper, K-B method was employed in the tests of drugs, and the inhibition situations of CGC formation were observed.

Another assay concerns Bacillus cereus. The assay is described as above. It counts as cell-based. The procedure: as §1, §2, §3
The next assay concerns Klebsiella. The assay is described as above. The class given is cell-based. As for the experimental part:
as §1, §2, §3

A further assay concerns Bacillus proteus. Described as above. It counts as cell-based. As for the experimental part: as §1, §2, §3
A further assay relates to Bacteroides fragilis. The assay is described as above. The class given is cell-based. The procedure:
as §1, §2, §3

A further assay concerns Citro Bacter. Described as above. The class given is cell-based. As for the experimental part:
as §1, §2, §3

The subject of the next assay is Diphtheroid bacillus. The assay is described as above. It counts as cell-based. As for the experimental part: as §1, §2, §3
Another assay deals with Listeria. The description is as above. It counts as cell-based. The procedure:
as §1, §2, §3

The test system of another assay is E. coli. The description is as above. It counts as cell-based. The procedure: as §1, §2, §3
Assay [1] deals with rats infected and not infected by Bacillus typhi murium. The class given is in vivo, Wistar rats. The note with it: rats infected or not by Bacillus typhi murium, consecutive week, 15 rats per group.
For assay [2], the system named is irritable bowel syndrome (IBS) caused by bacterial CGC. The assay is described as follows: Test Example 5: preventing irritable bowel syndrome (IBS) caused by bacterial CGC. The note with it: for CGCs in the rat stools after one week of drug withdrawal / CGCs in the stools of the rats: rats, effective dosage for consecutive 10 days, 30 rats per group; for CGCs in the stools of the rats: stools observed during administration and within 1 week after drug withdrawal. It counts as in vivo, rats. The source says: On this basis, the rats were subjected to stimulations such as electric stimulation, intragastric administration with fructus zanthoxyli water, cold, constraint etc. in order to induce IBS, and the incidence rates of IBS of two groups were observed.

Where [3] appears, read: compound preparation 100 mg N-acetyl-D-glucosamine + 300 mg cefuroxime, control 300 mg cefuroxime.
Where [4] appears, read: first of three values given respectively: electric stimulation.
Setting [5] is: second of three values given respectively: intragastric administration with fructus zanthoxyli water.
Where [6] appears, read: third of three values given respectively: cold, constraint etc.
Where [7] appears, read: compound preparation 100 mg N-acetyl-D-glucosamine + 900 mg spiramycin, control 900 mg spiramycin.
Where [8] appears, read: compound preparation 100 mg N-acetyl-D-glucosamine + 1500 mg ampicillin-sulbactam, control drug was ampicillin-sulbactam.
[9] abbreviates: compound preparation N-acetyl-D-glucosamine (50 mg) and tetracycline (150 mg), control tetracycline (150 mg).

Like-named read-outs stand apart in the source and are kept apart here.

Take `CO/N=C(\C(=O)N[C@@H]1C(=O)N2C(C(=O)O)=C(COC(N)=O)CS[C@H]12)c1ccco1` [Cefuroxime, cefuroxime]: the CGC formation result in the assay with Nucleic Acid Bacter (setting [3]) is “+ (If cell length was more than 50 μm and cell number was more than 5 in each visual field, it was deemed as CGC positive and was marked with “+”)”; with Bacillus cereus (setting [3]) it was “+ (If cell length was more than 50 μm and cell number was more than 5 in each visual field, it was deemed as CGC positive and was marked with “+”)”; in the assay with Klebsiella (setting [3]), “+ (If cell length was more than 50 μm and cell number was more than 5 in each visual field, it was deemed as CGC positive and was marked with “+”)”; in the assay with Bacillus proteus (setting [3]) it was “+ (If cell length was more than 50 μm and cell number was more than 5 in each visual field, it was deemed as CGC positive and was marked with “+”)”; in the assay on Bacteroides fragilis (setting [3]), “+ (If cell length was more than 50 μm and cell number was more than 5 in each visual field, it was deemed as CGC positive and was marked with “+”)”; in the assay with Citro Bacter (setting [3]), “+ (If cell length was more than 50 μm and cell number was more than 5 in each visual field, it was deemed as CGC positive and was marked with “+”)”. Also, the CGC formation result in the assay with Diphtheroid bacillus (setting [3]) is “+ (If cell length was more than 50 μm and cell number was more than 5 in each visual field, it was deemed as CGC positive and was marked with “+”)”; in the assay with Listeria (setting [3]) it was “+ (If cell length was more than 50 μm and cell number was more than 5 in each visual field, it was deemed as CGC positive and was marked with “+”)”; in the assay with E. coli (setting [3]), “+ (If cell length was more than 50 μm and cell number was more than 5 in each visual field, it was deemed as CGC positive and was marked with “+”)”. In addition, the “positive rates of stool CGC and intestinal mucosa CGC” value (shortened to “positive rates”) in assay [1] (N-acetyl-D-glucosamine (100 mg)+cefuroxime (300 mg) vs antibiotic only) is listed as 100%. Further, the “incidence rate of IBS” value in [2] (setting [4]), in assay [2] (setting [5]) and in [2] (setting [6]) was 33% in each case. Further, the “CGCs in the rat stools after one week of drug withdrawal” value (from here on “CGCs in the rat stools after one week”) in assay [2] is “still present”. The “CGCs in the stools of the rats” value in assay [2] is recorded as “a large amount of CGCs appeared”.
Turning to spiramycin, the CGC formation result in the assay with Nucleic Acid Bacter (setting [7]) was “+ (If cell length was more than 50 μm and cell number was more than 5 in each visual field, it was deemed as CGC positive and was marked with “+”)”; in the assay on Nucleic Acid Bacter (setting [8]) it was “+ (If cell length was more than 50 μm and cell number was more than 5 in each visual field, it was deemed as CGC positive and was marked with “+”)”; in the assay with Bacillus cereus (setting [7]) it was “+ (If cell length was more than 50 μm and cell number was more than 5 in each visual field, it was deemed as CGC positive and was marked with “+”)”; in the assay on Bacillus cereus (setting [8]), “+ (If cell length was more than 50 μm and cell number was more than 5 in each visual field, it was deemed as CGC positive and was marked with “+”)”; with Klebsiella (setting [7]), “+ (If cell length was more than 50 μm and cell number was more than 5 in each visual field, it was deemed as CGC positive and was marked with “+”)”; in the assay on Klebsiella (setting [8]), “+ (If cell length was more than 50 μm and cell number was more than 5 in each visual field, it was deemed as CGC positive and was marked with “+”)”. Also, the CGC formation entry in the assay on Bacillus proteus (setting [7]) is “+ (If cell length was more than 50 μm and cell number was more than 5 in each visual field, it was deemed as CGC positive and was marked with “+”)”; with Bacillus proteus (setting [8]), “+ (If cell length was more than 50 μm and cell number was more than 5 in each visual field, it was deemed as CGC positive and was marked with “+”)”; with Bacteroides fragilis (setting [7]), “+ (If cell length was more than 50 μm and cell number was more than 5 in each visual field, it was deemed as CGC positive and was marked with “+”)”; with Bacteroides fragilis (setting [8]), “+ (If cell length was more than 50 μm and cell number was more than 5 in each visual field, it was deemed as CGC positive and was marked with “+”)”; in the assay with Citro Bacter (setting [7]) it was “+ (If cell length was more than 50 μm and cell number was more than 5 in each visual field, it was deemed as CGC positive and was marked with “+”)”; in the assay with Citro Bacter (setting [8]), “+ (If cell length was more than 50 μm and cell number was more than 5 in each visual field, it was deemed as CGC positive and was marked with “+”)”. Moreover, the CGC formation result was “+ (If cell length was more than 50 μm and cell number was more than 5 in each visual field, it was deemed as CGC positive and was marked with “+”)” in the assay with Diphtheroid bacillus (setting [7]); “+ (If cell length was more than 50 μm and cell number was more than 5 in each visual field, it was deemed as CGC positive and was marked with “+”)” in the assay with Diphtheroid bacillus (setting [8]); “+ (If cell length was more than 50 μm and cell number was more than 5 in each visual field, it was deemed as CGC positive and was marked with “+”)” in the assay with Listeria (setting [7]); “+ (If cell length was more than 50 μm and cell number was more than 5 in each visual field, it was deemed as CGC positive and was marked with “+”)” in the assay with Listeria (setting [8]); “+ (If cell length was more than 50 μm and cell number was more than 5 in each visual field, it was deemed as CGC positive and was marked with “+”)” in the assay with E. coli (setting [7]); “+ (If cell length was more than 50 μm and cell number was more than 5 in each visual field, it was deemed as CGC positive and was marked with “+”)” with E. coli (setting [8]). Moreover, the “positive rates” value in [1] (N-acetyl-D-glucosamine (100 mg)+spiramycin (900 mg) vs only spiramycin) was 100%. For the same compound, the “incidence rate of IBS” value in assay [2] (setting [4]), in [2] (setting [5]) and in assay [2] (setting [6]) was 33% throughout. For the same compound, in [2], the “CGCs in the rat stools after one week” value is reported as “still present”. In assay [2], the “CGCs in the stools of the rats” value was “a large amount of CGCs appeared”.
For `CN(C)C1C(O)=C(C(N)=O)C(=O)C2(O)C(O)=C3C(=O)c4c(O)cccc4C(C)(O)C3CC12` (stereo not drawn) [Tetracyclin, tetracycline], the CGC formation result is “+ (If cell length was more than 50 μm and cell number was more than 5 in each visual field, it was deemed as CGC positive and was marked with “+”)” in the assay on Nucleic Acid Bacter (setting [9]); “+ (If cell length was more than 50 μm and cell number was more than 5 in each visual field, it was deemed as CGC positive and was marked with “+”)” in the assay on Bacillus cereus (setting [9]); “+ (If cell length was more than 50 μm and cell number was more than 5 in each visual field, it was deemed as CGC positive and was marked with “+”)” with Klebsiella (setting [9]); “+ (If cell length was more than 50 μm and cell number was more than 5 in each visual field, it was deemed as CGC positive and was marked with “+”)” in the assay with Bacillus proteus (setting [9]); “+ (If cell length was more than 50 μm and cell number was more than 5 in each visual field, it was deemed as CGC positive and was marked with “+”)” in the assay with Bacteroides fragilis (setting [9]); “+ (If cell length was more than 50 μm and cell number was more than 5 in each visual field, it was deemed as CGC positive and was marked with “+”)” in the assay on Citro Bacter (setting [9]). Moreover, the CGC formation entry in the assay on Diphtheroid bacillus (setting [9]) is “+ (If cell length was more than 50 μm and cell number was more than 5 in each visual field, it was deemed as CGC positive and was marked with “+”)”; in the assay on Listeria (setting [9]), “+ (If cell length was more than 50 μm and cell number was more than 5 in each visual field, it was deemed as CGC positive and was marked with “+”)”; with E. coli (setting [9]) it was “+ (If cell length was more than 50 μm and cell number was more than 5 in each visual field, it was deemed as CGC positive and was marked with “+”)”. The “positive rates” value in assay [1] (N-acetyl-D-glucosamine (150 mg)+tetracycline (150 mg) vs only tetracycline) was 100%. The “incidence rate of IBS” value in assay [2] (setting [4]), in assay [2] (setting [5]) and in assay [2] (setting [6]) was 33% throughout. Further, the “CGCs in the rat stools after one week” value in [2] is reported as “still present”. Besides, in assay [2], the “CGCs in the stools of the rats” value is reported as “a large amount of CGCs appeared”.
